Columns and labels:
Assay type in all cases: in vivo
human U87-MG tumor cells = assay: Human U87-MG xenograft model; conditions: oral daily; for median tumor volume (TV) change: day 12, female CD-1 nude mice, s.c. U87-MG, 100 mg/kg pyridazinone, 30 mg/kg quinazoline, alone or combined; for median time until tumor progression: progression = TV change >73%, treatment up to 65 days, CD-1 nude mice
Method: Background: The human U87-MG glioblastoma model is an autocrine HGF/c-Met expressing tumor model with an activated c-Met pathway. This model carries a mutation of PTEN, a negative regulator of the PI3K signaling.
(§1) Method: Female CD-1 nude mice (6-8 weeks old) where subcutaneously injected with human U87-MG tumor cells and were divided into treatment groups (8 animals per group) after the tumors were established. Respective groups were administered orally with the 3-(1-{3-[5-(1-Methyl-piperidin-4-ylmethoxy)-pyrimidin-2-yl]-benzyl}-6-oxo-1,6-dihydro-pyridazin-3-yl)-benzonitrile hydrochloride hydrate (100 mg/kg) or 4-[(S)-2-azetidin-1-yl-1-(4-chloro-3-trifluoromethyl-phenyl)-ethylamino]-quinazoline-8-carboxylic acid amide (30 mg/kg) daily in monotherapy or in combination until tumors progressed or until treatment period of 65 days. At day 12, the day of vehicle group termination, median tumor volume (TV) change in % were calculated. Statistical analysis has been done with two way-RM ANOVA. Median time until tumor progression under treatment has been calculated at the end of the study. Tumor progression is defined as tumor volume change >73%.

human H596 tumor cells = assay: Human HGF dependent H596 lung xenograft model; conditions: oral daily; for median tumor volume change: day 14, female humanized HGF SCID mice, s.c. H596, 100 mg/kg pyridazinone, 30 mg/kg (from day 12 20 mg/kg) quinazoline, alone or combined; for median time until tumor progression: progression = TV change >73%, treatment up to 66 days, humanized HGF SCID mice
Source text: Background: The human H596 lung model is c-Met expressing paracrine HGF/c-Met tumor model which a juxta-membran (JM) domain mutation of c-Met which lead to prolonged c-Met activation after HGF ligand binding. The model expresses […] with an activated c-Met pathway. This model carries a PI3KCA mutation (literature data).
Method: Female humanized HGF SCID mice (8-10 weeks old) where subcutaneously injected with human H596 tumor cells and were divided into treatment groups (8 animals per group) after the tumors were established.
Respective groups were administered orally with the 3-(1-{3-[5-(1-Methyl-piperidin-4-ylmethoxy)-pyrimidin-2-yl]-benzyl}-6-oxo-1,6-dihydro-pyridazin-3-yl)-benzonitrile hydrochloride hydrate (100 mg/kg) or 4-[(S)-2-azetidin-1-yl-1-(4-chloro-3-trifluoromethyl-phenyl)-ethylamino]-quinazoline-8-carboxylic acid amide (30 mg/kg, from day 12 20 mg/kg) daily in monotherapy or in combination until tumors progressed or until treatment period of 66 days. At day 14, the day when all animals in the vehicle group were still present, median tumor volume change in % were calculated. Statistical analysis has been done with two way-RM ANOVA. Median time until tumor progression under treatment has been calculated at the end of the study. Tumor progression is defined as tumor volume change >73%.

[1] = system: human NCI-H441 tumor cells; assay: Human NCI-H441 lung xenograft model; conditions: oral daily; for median tumor volume change: day 21, female CD-1 nude mice, s.c. NCI-H441, 100 mg/kg pyridazinone, 30 mg/kg quinazoline, alone or combined; for median time until tumor progression: progression = TV change >73%, treatment up to 78 days, CD-1 nude mice
Method: Background: The human NCI-H441 lung model is an c-Met overexpressing tumor model with an activated c-Met pathway. This model carries a kras mutation. Literature data have shown phosphorylation of S6K is present in this tumor model.
as §1, with “week” for “weeks”, “NCI-H441” for “U87-MG”, “78” for “65”, “21,” for “12,”, “volume” for “volume (TV)”

CN1CCC(COc2cnc(-c3cccc(Cn4nc(-c5cccc(C#N)c5)ccc4=O)c3)nc2)CC1.Cl.O [3-(1-{3-[5-(1-Methyl-piperidin-4-ylmethoxy)-pyrimidin-2-yl]-benzyl}-6-oxo-1,6-dihydro-pyridazin-3-yl)-benzonitrile hydrochloride hydrate]
median tumor volume (TV) change (human U87-MG tumor cells): −71%
median time until tumor progression (human U87-MG tumor cells): 58 days
median tumor volume change (human H596 tumor cells): 35%
median time until tumor progression (human H596 tumor cells): 24 days
median tumor volume change [1]: −1%
median time until tumor progression [1]: 67 days

NC(=O)c1cccc2c(N[C@H](CN3CCC3)c3ccc(Cl)c(C(F)(F)F)c3)ncnc12 [4-[(S)-2-Azetidin-1-yl-1-(4-chloro-3-trifluoromethyl-phenyl)-ethylamino]-quinazoline-8-carboxylic acid amide]
median tumor volume (TV) change (human U87-MG tumor cells): 51%
median time until tumor progression (human U87-MG tumor cells): 14 days
median tumor volume change (human H596 tumor cells): 36%
median time until tumor progression (human H596 tumor cells): 24 days
median tumor volume change [1]: 138%
median time until tumor progression [1]: 14 days
